{"source": "paper PMC4461042", "about": "(Structure (London, England : 1993), 2015)", "key": {"mice": {"test_system": "mice", "details": "in vivo; cited from earlier work"}, "full-length α7 nAChR": {"target": "full-length α7 nAChR (Homo sapiens, UniProt P36544)", "sequence (P36544 23-502)": "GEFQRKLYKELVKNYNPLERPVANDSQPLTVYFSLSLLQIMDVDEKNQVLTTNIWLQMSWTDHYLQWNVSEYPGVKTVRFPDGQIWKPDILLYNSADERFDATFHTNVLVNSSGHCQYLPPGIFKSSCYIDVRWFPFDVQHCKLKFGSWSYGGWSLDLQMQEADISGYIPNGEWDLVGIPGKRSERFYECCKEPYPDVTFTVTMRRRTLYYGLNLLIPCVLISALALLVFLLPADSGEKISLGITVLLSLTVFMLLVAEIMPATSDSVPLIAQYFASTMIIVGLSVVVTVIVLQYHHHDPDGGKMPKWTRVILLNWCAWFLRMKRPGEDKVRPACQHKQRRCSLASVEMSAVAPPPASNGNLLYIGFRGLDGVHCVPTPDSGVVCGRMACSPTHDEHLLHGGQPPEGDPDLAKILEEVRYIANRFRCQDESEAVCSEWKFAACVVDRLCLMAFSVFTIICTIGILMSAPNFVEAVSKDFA", "type": "binding"}, "[1]": {"target": "T1, human neuronal α4β2 nAChR (Homo sapiens, UniProt P17787+P43681)", "T1 sequence (P43681 29-627)": "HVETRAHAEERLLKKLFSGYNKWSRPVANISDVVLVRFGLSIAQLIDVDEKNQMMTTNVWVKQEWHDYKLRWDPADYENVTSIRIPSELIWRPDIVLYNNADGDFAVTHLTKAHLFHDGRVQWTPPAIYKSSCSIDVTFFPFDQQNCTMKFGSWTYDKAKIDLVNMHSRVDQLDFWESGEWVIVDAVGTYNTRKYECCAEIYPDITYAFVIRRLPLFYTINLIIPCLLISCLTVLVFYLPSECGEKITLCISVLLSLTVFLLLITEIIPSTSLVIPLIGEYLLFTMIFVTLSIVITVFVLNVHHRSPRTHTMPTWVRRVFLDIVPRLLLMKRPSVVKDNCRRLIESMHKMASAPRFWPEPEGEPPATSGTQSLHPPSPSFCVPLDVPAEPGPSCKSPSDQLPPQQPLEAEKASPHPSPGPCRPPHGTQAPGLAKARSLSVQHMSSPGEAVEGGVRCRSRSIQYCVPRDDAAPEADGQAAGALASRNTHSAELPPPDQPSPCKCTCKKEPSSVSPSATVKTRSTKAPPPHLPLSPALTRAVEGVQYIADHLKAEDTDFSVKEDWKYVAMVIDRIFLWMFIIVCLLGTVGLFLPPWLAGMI", "T1 sequence (P17787 26-502)": "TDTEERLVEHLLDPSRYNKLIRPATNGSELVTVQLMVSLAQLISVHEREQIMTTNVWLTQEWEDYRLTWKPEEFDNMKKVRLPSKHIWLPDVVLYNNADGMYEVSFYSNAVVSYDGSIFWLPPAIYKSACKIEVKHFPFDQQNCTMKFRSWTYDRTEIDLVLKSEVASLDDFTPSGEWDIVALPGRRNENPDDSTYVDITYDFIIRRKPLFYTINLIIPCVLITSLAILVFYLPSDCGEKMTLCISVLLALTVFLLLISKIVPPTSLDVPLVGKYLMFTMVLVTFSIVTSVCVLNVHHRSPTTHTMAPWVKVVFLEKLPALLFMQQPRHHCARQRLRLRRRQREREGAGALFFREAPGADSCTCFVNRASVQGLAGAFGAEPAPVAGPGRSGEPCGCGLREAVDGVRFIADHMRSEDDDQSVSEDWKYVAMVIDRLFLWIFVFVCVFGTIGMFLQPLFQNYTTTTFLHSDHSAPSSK", "type": "cell-based", "details": "read-out: IC50, inhibition of ACh-evoked nicotinic currents"}, "L-AChBP": {"target": "L-AChBP (Lymnaea stagnalis, UniProt P58154)", "sequence (P58154 20-229 limits assumed)": "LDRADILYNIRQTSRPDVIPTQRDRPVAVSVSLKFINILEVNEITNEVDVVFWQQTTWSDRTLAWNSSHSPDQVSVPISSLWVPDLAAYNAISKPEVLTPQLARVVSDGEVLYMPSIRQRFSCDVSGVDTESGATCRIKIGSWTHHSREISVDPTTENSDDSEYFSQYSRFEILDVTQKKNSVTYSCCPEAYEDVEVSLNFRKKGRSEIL", "type": "binding"}, "A-AChBP": {"target": "A-AChBP (Aplysia californica, UniProt Q8WSF8)", "sequence (Q8WSF8 18-236 limits assumed)": "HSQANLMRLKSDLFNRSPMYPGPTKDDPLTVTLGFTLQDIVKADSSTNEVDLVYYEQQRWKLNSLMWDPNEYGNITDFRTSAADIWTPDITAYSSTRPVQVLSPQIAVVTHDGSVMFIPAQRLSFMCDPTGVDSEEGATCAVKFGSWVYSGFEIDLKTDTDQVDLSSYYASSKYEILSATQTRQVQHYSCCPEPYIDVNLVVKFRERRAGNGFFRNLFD", "type": "binding", "details": "for Kd: read-out: Kd/calc"}, "α4β2 nAChR [2]": {"target": "T2, α4β2 nAChR (Homo sapiens, UniProt P17787+P43681)", "T2 sequence (P43681 29-627)": "as the sequence (P43681 29-627) above", "T2 sequence (P17787 26-502)": "as the sequence (P17787 26-502) above", "type": "binding"}, "A-AChBP/α7 chimera III": {"target": "A-AChBP/α7 chimera III", "type": "binding", "details": "read-out: Kd/equ"}, "[3]": {"test_system": "muscle-type α1_2βγδ nAChR", "type": "cell-based, Torpedo", "details": "read-out: IC50, inhibition of ACh-evoked nicotinic currents"}, "α3β2 nAChR [4]": {"target": "T3, α3β2 nAChR (Homo sapiens, UniProt P17787+P32297)", "T3 sequence (P17787 26-502)": "as above", "T3 sequence (P32297 32-505)": "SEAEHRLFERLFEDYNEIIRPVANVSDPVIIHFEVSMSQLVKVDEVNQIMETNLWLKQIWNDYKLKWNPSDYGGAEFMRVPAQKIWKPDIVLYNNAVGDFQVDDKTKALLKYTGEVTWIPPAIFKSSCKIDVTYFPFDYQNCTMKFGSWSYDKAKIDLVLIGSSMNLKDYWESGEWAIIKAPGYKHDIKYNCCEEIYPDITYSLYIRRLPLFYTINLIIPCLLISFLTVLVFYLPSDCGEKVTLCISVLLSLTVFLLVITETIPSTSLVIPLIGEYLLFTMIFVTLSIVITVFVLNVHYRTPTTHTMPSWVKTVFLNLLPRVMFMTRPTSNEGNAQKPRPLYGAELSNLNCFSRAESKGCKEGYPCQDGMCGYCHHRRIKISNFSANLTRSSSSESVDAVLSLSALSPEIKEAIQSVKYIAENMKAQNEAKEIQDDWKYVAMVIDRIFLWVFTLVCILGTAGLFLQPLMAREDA", "type": "binding"}, "human neuronal α7 nAChR [5]": {"target": "T4, human neuronal α7 nAChR (Homo sapiens, UniProt P36544)", "T4 sequence (P36544 23-502)": "as the sequence (P36544 23-502) above", "type": "cell-based"}, "human neuronal α7 nAChR [6]": {"target": "T4, human neuronal α7 nAChR", "details": "read-out: IC50, inhibition of ACh-evoked nicotinic currents; cited from earlier work"}, "full-length α4β2 nAChR": {"target": "full-length α4β2 nAChR (Homo sapiens, UniProt P17787+P43681)", "sequence (P17787 26-502)": "as the sequence (P17787 26-502) above", "sequence (P43681 29-627)": "as the sequence (P43681 29-627) above", "type": "binding"}, "[7]": {"test_system": "muscle-type α1_2βγδ nAChR", "details": "read-out: IC50, inhibition of ACh-evoked nicotinic currents; cited from earlier work"}, "[8]": {"target": "T1, human neuronal α4β2 nAChR", "details": "read-out: IC50, inhibition of ACh-evoked nicotinic currents; cited from earlier work"}, "α3β2 nAChR [9]": {"target": "T3, α3β2 nAChR", "details": "cited from earlier work"}, "α4β2 nAChR [10]": {"target": "T2, α4β2 nAChR", "details": "cited from earlier work"}, "[11]": {"details": "read-out: Kd/equ, competitive component"}, "[12]": {"details": "read-out: Kd/equ, non-competitive component"}}, "note": "Where two headings read alike, the source gives them in different places.", "data": [{"smiles": "C=C1CCCC2=NC[C@H](C)[C@@H](C)C[C@@]23CCC(C(=O)O)=C[C@@H]3[C@@H]2O[C@]3(C[C@H]4CCC[C@@]5(CC[C@@]6(O[C@@H](CC[C@@]6(C)O)C1)O5)O4)C[C@@H](C)[C@@H](O)[C@H]2O3", "note": "[(−)-PnTx-A]", "values": [{"measurement": "activity in mouse assays", "setting": "mice", "value": "inactive"}]}, {"smiles": "C=CC1=C[C@@H]2[C@@H]3O[C@]4(C[C@H]5CCC[C@@]6(CC[C@@]7(O[C@@H](CC[C@@]7(C)O)CC(=C)CCCC7=NC[C@H](C)[C@@H](C)C[C@@]72CC1)O6)O5)C[C@@H](C)[C@@H](O)[C@H]3O4", "note": "[PnTx-G, pinnatoxin-G]", "values": [{"measurement": "Kd", "setting": "full-length α7 nAChR; [11]", "value": "34 ± 4", "unit": "nM"}, {"measurement": "Kd", "setting": "full-length α7 nAChR; [12]", "value": "270 ± 50", "unit": "nM"}, {"measurement": "IC50", "setting": "[1]", "value": 4.9, "unit": "nM"}, {"measurement": "koff", "setting": "L-AChBP", "value": "60 ± 30 ^b min^−1"}, {"measurement": "kon", "setting": "L-AChBP", "value": "0.17 ± 0.01 ^b 10^9 M^−1min^−1"}, {"measurement": "Kd", "setting": "L-AChBP; read-out: Kd/calc", "value": "360 ± 210", "unit": "nM"}, {"measurement": "Kd", "setting": "L-AChBP; read-out: Kd/equ", "value": 315, "unit": "nM"}, {"measurement": "koff", "setting": "A-AChBP", "value": "0.78 ± 0.06 ^b min^−1"}, {"measurement": "kon", "setting": "A-AChBP", "value": "0.91 ± 0.03 ^b 10^9 M^−1min^−1"}, {"measurement": "Kd", "setting": "A-AChBP", "value": "0.86 ± 0.09", "unit": "nM"}, {"measurement": "Ki", "setting": "α4β2 nAChR [2]", "value": "101 ± 30", "unit": "nM"}, {"measurement": "Kd", "setting": "A-AChBP/α7 chimera III", "value": "174 ± 19", "unit": "nM"}, {"measurement": "IC50", "setting": "[3]", "value": 3.82, "unit": "nM"}, {"measurement": "Ki", "setting": "α3β2 nAChR [4]", "value": "63.9 ± 1.2", "unit": "nM"}, {"measurement": "lower potency towards α7 compared with PnTx-A", "setting": "human neuronal α7 nAChR [5]", "value": "~ 50 fold"}, {"measurement": "IC50", "setting": "human neuronal α7 nAChR [6]", "value": 5.06, "unit": "nM"}, {"measurement": "Kd", "setting": "full-length α4β2 nAChR; [11]", "value": "99 ± 50", "unit": "nM"}, {"measurement": "Kd", "setting": "full-length α4β2 nAChR; [12]", "value": "87 ± 62", "unit": "nM"}]}, {"smiles": "C=C1CCCC2=NC[C@H](C)[C@@H](C)C[C@@]23CCC(C(=O)O)=C[C@@H]3[C@@H]2O[C@]3(C[C@H]4CCC[C@@]5(CC[C@@]6(O[C@@H](CC[C@@]6(C)O)C1)O5)O4)C[C@@H](C)[C@@H](O)[C@H]2O3", "note": "[PnTx-A, pinnatoxin-A]", "values": [{"measurement": "Kd", "setting": "full-length α7 nAChR; [11]", "value": "0.18 ± 0.1", "unit": "nM"}, {"measurement": "Kd", "setting": "full-length α7 nAChR; [12]", "value": "2.6 ± 1.3", "unit": "nM"}, {"measurement": "IC50", "setting": "[7]", "value": 5.53, "unit": "nM"}, {"measurement": "IC50", "setting": "[8]", "value": 30.4, "unit": "nM"}, {"measurement": "koff", "setting": "L-AChBP", "value": "31.6 ± 7.9 ^a min^−1"}, {"measurement": "kon", "setting": "L-AChBP", "value": "0.21 ± 0.09 ^a 10^9 M^−1min^−1"}, {"measurement": "Kd", "setting": "L-AChBP; read-out: Kd/calc", "value": "170 ± 77", "unit": "nM"}, {"measurement": "koff", "setting": "A-AChBP", "value": "< 0.06 ^b min^−1"}, {"measurement": "kon", "setting": "A-AChBP", "value": "1.4 ± 0.7 ^a 10^9 M^−1min^−1"}, {"measurement": "Kd", "setting": "A-AChBP", "value": "< 0.05", "unit": "nM"}, {"measurement": "Ki", "setting": "α3β2 nAChR [9]", "value": "9.4 ± 1.9", "unit": "nM"}, {"measurement": "greater potency (IC50) toward α7 than α4β2", "setting": "human neuronal α7 nAChR [5]", "value": "~ 300 fold"}, {"measurement": "IC50", "setting": "human neuronal α7 nAChR [6]", "value": 0.107, "unit": "nM"}, {"measurement": "Ki", "setting": "α4β2 nAChR [10]", "value": "15.6 ± 5.2", "unit": "nM"}, {"measurement": "Kd", "setting": "full-length α4β2 nAChR; [11]", "value": "95 ± 11", "unit": "nM"}, {"measurement": "Kd", "setting": "full-length α4β2 nAChR; [12]", "value": "199 ± 1", "unit": "nM"}]}]}
